Data as given in ChEMBL document CHEMBL5325462, “Regioselective synthesis and in vitro cytotoxicity evaluation of 3-thiooxindole derivatives: Tubulin polymerization inhibition and apoptosis inducing studies” (Bioorg Med Chem, 2023).
Active and inactive are the calls of the source. The calls are words filed in the database; no cut-off is given here.

What was measured:
HCT-116 [1] = experiment: Inhibition of colony formation in human HCT-116 cells at 3.32 to 13.28 uM measured after 14 days; assay type: functional, cell-based; details: dose 3.32-13.28 µM, time 14.0 day
HCT-116 [2] = experiment: Induction of apoptosis in human HCT-116 cells assessed as necrotic cells at 13.28 uM incubated for 24 hrs by Annexin V-FITC/PI staining based flow cytometry analysis (Rvb= 0.0%); assay type: functional
HCT-116 [3] = experiment: Cell cycle arrest in human HCT-116 cells assessed as accumulation of cells in G2/M phase at 13.28 uM measured after 48 hrs by PI staining based flow cytometry method (reference value: 6.7%); assay type: functional
HCT-116 [4] = experiment: Cell cycle arrest in human HCT-116 cells assessed as accumulation of cells in G0/G1 phase at 3.32 uM measured after 48 hrs by PI staining based flow cytometry method (reference value: 79%); assay type: functional
HCT-116 [5] = experiment: Induction of morphological changes in human HCT-116 cells assessed as cell nucleus shrinkage at 3.32 to 13.28 uM measured after 48 hrs by phase contrast microscope; assay type: functional, cell-based; details: dose 3.32-13.28 µM
HCT-116 [6] = experiment: Induction of apoptosis in human HCT-116 cells assessed as early apoptotic cells at 13.28 uM incubated for 24 hrs by Annexin V-FITC/PI staining based flow cytometry analysis (Rvb= 0.2%); assay type: functional
BT-474 = experiment: Cytotoxicity against human BT-474 cells assessed as inhibition of cell growth measured after 72 hrs by MTT assay; assay type: functional, cell-based; details: BT-474, 72 h
HCT-116 [7] = experiment: Cell cycle arrest in human HCT-116 cells assessed as accumulation of cells in S phase at 3.32 uM measured after 48 hrs by PI staining based flow cytometry method (reference value: 8.8%); assay type: functional
HCT-116 [8] = experiment: Induction of apoptosis in human HCT-116 cells assessed as early apoptotic cells at 3.32 uM incubated for 24 hrs by Annexin V-FITC/PI staining based flow cytometry analysis (Rvb= 0.2%); assay type: functional
HCT-116 [9] = experiment: Cell cycle arrest in human HCT-116 cells assessed as accumulation of cells in sub-G1 phase at 3.32 uM measured after 48 hrs by PI staining based flow cytometry method (reference value: 4.6%); assay type: functional
HCT-116 [10] = experiment: Induction of apoptosis in human HCT-116 cells assessed as necrotic cells at 6.64 uM incubated for 24 hrs by Annexin V-FITC/PI staining based flow cytometry analysis (Rvb= 0.0%); assay type: functional
HCT-116 [11] = experiment: Induction of apoptosis in human HCT-116 cells assessed as late apoptotic cells at 13.28 uM incubated for 24 hrs by Annexin V-FITC/PI staining based flow cytometry analysis (Rvb= 0.1%); assay type: functional
HCT-116 [12] = experiment: Cell cycle arrest in human HCT-116 cells assessed as accumulation of cells in G2/M phase at 6.64 uM measured after 48 hrs by PI staining based flow cytometry method (reference value: 6.7%); assay type: functional

CC(C)(C)S(=O)(=O)NCC1(Sc2nc3ccccc3[nH]2)C(=O)N(Cc2ccc(Br)cc2)c2ccccc21 (stereo not drawn)
inhibition (HCT-116 [1]): Active | Activity (HCT-116 [2]): 2.9% | Activity (HCT-116 [3]): 18.4% | Activity (HCT-116 [4]): 52% | Activity (HCT-116 [5]): Active | Activity (HCT-116 [6]): 8.9% | IC50 (BT-474): 14.2 µM | Activity (HCT-116 [7]): 11.7% | Activity (HCT-116 [8]): 41.8% | Activity (HCT-116 [9]): 24.4% | Activity (HCT-116 [10]): 10.4% | Activity (HCT-116 [11]): 84.1% | Activity (HCT-116 [12]): 13.3%
